Reference: BigSolDB 2.1

O=C(O)c1ccc(-c2ccc(C(=O)O)o2)o1
solubility (mole fraction)
Details | in DMAc | in DMSO | in acetic acid | in acetonitrile | in isopropanol | in methanol | in n-pentanol | in water
298.15 K | 0.0166 | 0.00768 | 8.11e-06 | 1.73e-06 | 0.0001 | 0.000331 | 0.000146 | 9.64e-07
303.15 K | 0.0208 | 0.00984 | 1.13e-05 | 2.2e-06 | 0.000106 | 0.000393 | 0.000154 | 1.31e-06
313.15 K | 0.0283 | 0.017 | 2.35e-05 | 3.47e-06 | 0.000154 | 0.000464 | – | 1.97e-06
323.15 K | 0.0499 | 0.0282 | 3.38e-05 | 5.31e-06 | 0.000223 | 0.000574 | 0.000148 | 2.55e-06
333.15 K | 0.0555 | 0.0412 | 6.79e-05 | 7.91e-06 | 0.000284 | 0.000702 | 0.000214 | 3.75e-06
343.15 K | 0.0807 | 0.0728 | 0.000112 | 1.15e-05 | 0.000592 | 0.00109 | 0.000412 | 4.84e-06
353.15 K | – | – | 0.000214 | 1.58e-05 | 0.00116 | – | 0.000757 | 7.43e-06
363.15 K | – | – | – | 2.12e-05 | 0.0014 | – | 0.00144 | 9.09e-06
